Test results from patent publication US10655105B2, “Method for proliferation of pancreatic progenitor cells” (Takeda Pharmaceutical Company Limited, priority 2014, dated 2020).

Key:
[1] = system: 297L1 cell-derived pancreatic progenitor cells (passage number: 7); assay: Differentiation induction of insulin-producing cells from proliferated pancreatic progenitor cells, NKX6.1/INSULIN immunofluorescence staining; assay type: cell-based, human; conditions: cultured 9 days in IMEM-option Zn++ medium with 1% B-27; FIG. 9
Excerpt: Study was made on whether the proliferated and repetitively passaged pancreatic progenitor cells would have the ability to differentiate into INSULIN-producing cells. The cells used were 297L1 cell-derived pancreatic progenitor cells (passage number: 7). The pancreatic progenitor cells brought to a single cell state using Accutase were inoculated at 6×10^4 cells/well to a 96-well plate coated with Matrigel. The culture solution used was IMEM-option Zn^++ medium (containing 1% B-27®) supplemented with XAV939 (1 μM), Y27632 (10 μM), and bFGF (50 ng/ml). The cells were cultured for 2 days to render the cell density confluent. Then, the cells were washed with IMEM-option Zn^++ medium and then cultured for 9 days using IMEM-option Zn^++ medium (containing 1% B-27®) supplemented with ALKS inhibitor II. […] 4% PFA was added to the cells thus cultured, and the cells were fixed at room temperature for 30 minutes. The cells were further reacted with an anti-NKX6.1 antibody and an anti-INSULIN antibody (DAKO, A0564) as primary antibodies and further with an Alexa 488-labeled secondary antibody or an Alexa 568-labeled secondary antibody as a secondary antibody, sequentially, and then observed under a fluorescence microscope.

[2] = system: 297L1 cell-derived pancreatic progenitor cells (passage number: 7); conditions: Stem Cell Research 2012, 8, 274-284; cited from earlier work
[3] = system: PDX1-positive cells differentiation-induced from human iPS cell line 253G1; assay: Induction of pancreatic progenitor cells from PDX1-positive cells (253G1 iPS-derived), anti-PDX1/anti-NKX6.1 immunofluorescence staining; assay type: cell-based; conditions: cultured 7 days, IMEM-option Zn++ medium with 1% B-27; XAV939 1 μM and/or bFGF 100 ng/ml; FIG. 1
Experimental: The PDX1-positive cells differentiation-induced on a Matrigel-coated dish according to Reference Example 1 were washed with IMEM-option Zn^++ medium and then further cultured for 7 days in IMEM-option Zn^++ medium (containing 1% B-27®) supplemented with XAV939 (1 μM) and/or bFGF (100 ng/ml) (PeproTech, Inc.).
In order to examine the expression of PDX1 and NKX6.1 proteins in the cells thus cultured, immunofluorescence staining was carried out using an anti-PDX1 antibody and an anti-NKX6.1 antibody. […] Then, the cells were reacted with an anti-PDX1 antibody (AF2419, R&D Systems, Inc.) and an anti-NKX6.1 antibody (55F55A12-c, Developmental Studies Hybridoma Bank) as primary antibodies and further with an Alexa 488-labeled secondary antibody or an Alexa 568-labeled secondary antibody (both from Life Technologies Corp.) as a secondary antibody, sequentially, and then observed under a fluorescence microscope.
The PDX1-positive cells differentiation-induced on a Matrigel-coated dish according to Reference Example 1 were washed with IMEM-option Zn^++ medium. […] The cells thus cultured were subjected to the immunofluorescence staining described in Example 1 and observed under a fluorescence microscope.

Compound	appearance of INSULIN-positive cells [1]	induction of INSULIN-positive cells [2]	cells expressing PDX1 and NKX6.1 (immunofluorescence staining) [3]
Cc1cccc(-c2[nH]ncc2-c2ccc3ncccc3n2)n1 [ALKS inhibitor II]	INSULIN-positive cells appeared	known to induce INSULIN-positive cells	–
O=c1[nH]c(-c2ccc(C(F)(F)F)cc2)nc2c1CSCC2 [XAV939, 2-(4-trifluoromethylphenyl)-7,8-dihydro-5H-thiopyrano[4,3-d]pyrimidin-4(3H)-one]	–	–	cells coexpressing PDX1 and NKX6.1 were few in number
bFGF: FGF signal transduction activator, bFGF (FGF2)	–	–	cells coexpressing PDX1 and NKX6.1 were few in number
